Assay results: article PMC11997890, “In Vivo and In Vitro Pharmacokinetic Studies of a Dual Topoisomerase I/II Inhibitor” (ACS Pharmacology & Translational Science, 2025)

Assays:
CYP1A2 = target: T1, CYP1A2 (Homo sapiens, UniProt P05177); test: In vitro CYP inhibition, marker substrate phenacetin; type: in vitro ADME
T1 construct: host or cells: human liver microsomes (one value) / recombinant CYP enzyme (other value)
Experimental: (§1) To assess metabolizing enzyme-mediated drug interactions, P8-D6 was incubated with human liver (HLM) or recombinant CYP enzymes and the respective marker substrate according to the FDA (with the exception of using amitriptyline instead of S-mephenytoin). −
(§2) However, as some conversions were catalyzed by several enzymes, the conversion rates in HLM increased (e.g., bupropion and diclofenac).
(§3) To examine a possible in vitro CYP inhibition, the following CYP enzymes and marker substrates were investigated according to the FDA: , phenacetin (CYP1A2), bupropion (CYP2B6), amodiaquine (CYP2C8), diclofenac (CYP2C9), amitriptyline (CYP2C19), dextromethorphan (CYP2D6), testosterone (CYP3A4), and nifedipine (CYP3A4). Incubation was performed in a 0.2 mL reaction mix consisting of PBS buffer (pH 7.4), 1 mM marker substrate, 1 mM NADPH, and either 0.5 mg/mL recombinant CYP enzyme or human liver microsomes. P8-D6 was added for a final concentration of 0.5 μM, 1 μM, 5 μM, 10 μM, 25 μM, 50 μM, 100 μM, 500 μM, 1000 μM, and (in some cases) 5000 μM. Sample preparation was performed according to in vitro biotransformation.

Lipophilicity = type: physicochemical
CYP2C19 = target: T2, CYP2C19 (Homo sapiens, UniProt P33261); test: In vitro CYP inhibition, marker substrate amitriptyline; type: in vitro ADME
T2 construct: host or cells: human liver microsomes (one value) / recombinant CYP enzyme (other value)
Experimental: as §1, §2, §3

CYP2C8 = target: T3, CYP2C8 (Homo sapiens, UniProt P10632); test: In vitro CYP inhibition, marker substrate amodiaquine; type: in vitro ADME
T3 construct: host or cells: human liver microsomes (one value) / recombinant CYP enzyme (other value)
Experimental: as §1, §2, §3

CYP3A4 = target: T4, CYP3A4 (Homo sapiens, UniProt P08684); test: Conversion of P8-D6 by recombinant CYP3A4; type: in vitro ADME
T4 construct: host or cells: human liver microsomes (one value) / recombinant CYP enzyme (other value)
Experimental: (§4) P8-D6 N-oxide was the most common metabolite for all incubations with subcellular fractions from the homogenized tissue. According to the detected MS-MS fragments (supplied as Supporting Information Chapter 2), it resulted from N-oxygenation of the nitrogen at the side chain since the unmodified fragment of P8-DO (m/z = 414.1) was detected. Furthermore, the detected fragment at m/z = 440.1 is most likely a carbocation at the remaining ethyl chain after splitting off the dimethylamine N-oxide further strengthening the theory of selectively forming this specific N-oxide. In addition, no relevant chemical shifts in the aromatic range of the ^1H NMR compared to P8-D6 and mono were observed (supplied as Supporting Information Chapter 2). Thus, no chemical modifications can have occurred on the aromatic rings, and all changes must therefore affect the side chain. […] To determine which enzymes were responsible for the conversion, seven recombinant CYP 450 isoenzymes recommended by the FDA’s “Guidance for Industry” and human FMO3 were used.
Among the recombinant enzymes, P8-D6 is mostly metabolized to P8-D6 mono by CYP3A4 (0.34%, significant compared to any other enzyme, p < 0.0001) and 2D6 (0.17%, significant compared to 2C8, 1A2, 2C19, and 2C9, p < 0.005) (Figure E). […]

CYP2C9 = target: T5, CYP2C9 (Homo sapiens, UniProt P11712); test: Conversion of P8-D6 by recombinant CYP2C9; type: in vitro ADME
T5 construct: host or cells: human liver microsomes (one value) / recombinant CYP enzyme (other value)
Experimental: as §4
The third and final in vitro metabolite, P8-DO, is a direct synthesis precursor of P8-D6 and results from oxidative O-desalkylation of the complete side chain (Figure ). […] The formation of P8-DO is mainly catalyzed by CYP2C9 (0.10%) and 2D6 (0.09%) (Figure E). […]

[1] = In vitro biotransformation of P8-D6 with rat tissue fractions; type: in vitro ADME; conditions: 1 mM P8-D6, 150 min
Experimental: (§5) P8-D6 (1 mM) was incubated with postnuclear supernatant (PNS), microsomes, or S9 reaction mixture of various tissue samples (liver, kidney, lung, spleen, and colon) from different donor species (pigs, mice, rats, and humans) for 150 min (study preparation scheme supplied as Figure S5). The commercial human and rat enzymes were subjected to quality control by the supplier. Three phase I metabolites were identified. […] LC-MS and NMR spectroscopic data for the metabolites are given in Supporting Information. Based on the structural characteristics, the metabolites were named as follows: P8-DO (4), P8-D6 N-oxide (6), and P8-D6 mono (8). All metabolites were synthesized to confirm the postulated structure (chapter Synthesis of Metabolites). The extent of metabolism during in vitro incubation was highly dependent on the species (pig > mouse > rat > human) (Figure ).
(§6) For all phase I metabolism studies (except cell cultures), a 0.3 mL reaction mixture consisting of 1 mM substrate (P8-D6, P8-D6 mono, P8-D6 N-oxide), 1 mM NADPH as a cofactor, 0.67 mg/mL protein from homogenized tissue or subcellular fractions, respectively (except recombinant enzymes, where 0.5 mg/mL was used), and PBS buffer (pH 7.4) was used. All experiments were performed in biological triplicates. […]

[2] = In vitro biotransformation of P8-D6 with mouse tissue PNS; type: in vitro ADME; conditions: mouse liver PNS, 1 mM P8-D6, 150 min
Experimental: as §5, §6

T1 sequence (P05177 whole entry): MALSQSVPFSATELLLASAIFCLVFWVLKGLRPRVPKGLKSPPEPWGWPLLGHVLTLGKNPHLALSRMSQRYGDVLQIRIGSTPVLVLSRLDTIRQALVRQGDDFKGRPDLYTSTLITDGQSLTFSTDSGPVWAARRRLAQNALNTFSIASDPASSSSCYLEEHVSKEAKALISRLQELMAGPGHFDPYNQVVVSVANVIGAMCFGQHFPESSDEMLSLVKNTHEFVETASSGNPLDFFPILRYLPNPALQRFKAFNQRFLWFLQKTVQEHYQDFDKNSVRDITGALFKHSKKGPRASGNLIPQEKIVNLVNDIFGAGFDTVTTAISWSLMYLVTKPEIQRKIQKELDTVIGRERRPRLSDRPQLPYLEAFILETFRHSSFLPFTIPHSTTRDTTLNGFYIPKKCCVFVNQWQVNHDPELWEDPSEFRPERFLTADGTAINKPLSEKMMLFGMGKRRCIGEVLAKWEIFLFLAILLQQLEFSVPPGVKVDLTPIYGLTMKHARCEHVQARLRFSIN
T3 sequence (P10632 whole entry): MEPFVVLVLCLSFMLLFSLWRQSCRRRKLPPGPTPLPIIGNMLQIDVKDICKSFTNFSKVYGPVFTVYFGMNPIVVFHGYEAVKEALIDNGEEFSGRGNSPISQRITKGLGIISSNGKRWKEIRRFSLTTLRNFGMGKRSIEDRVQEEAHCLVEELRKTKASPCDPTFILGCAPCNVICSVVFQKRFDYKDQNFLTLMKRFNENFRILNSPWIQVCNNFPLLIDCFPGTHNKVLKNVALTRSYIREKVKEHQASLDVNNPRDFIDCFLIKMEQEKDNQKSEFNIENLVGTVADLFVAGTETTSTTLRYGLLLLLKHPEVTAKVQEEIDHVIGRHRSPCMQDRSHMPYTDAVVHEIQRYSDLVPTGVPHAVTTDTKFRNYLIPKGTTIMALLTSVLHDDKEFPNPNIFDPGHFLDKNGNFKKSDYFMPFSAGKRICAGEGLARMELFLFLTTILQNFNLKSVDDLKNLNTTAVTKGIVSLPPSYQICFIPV
T2 sequence (P33261 whole entry): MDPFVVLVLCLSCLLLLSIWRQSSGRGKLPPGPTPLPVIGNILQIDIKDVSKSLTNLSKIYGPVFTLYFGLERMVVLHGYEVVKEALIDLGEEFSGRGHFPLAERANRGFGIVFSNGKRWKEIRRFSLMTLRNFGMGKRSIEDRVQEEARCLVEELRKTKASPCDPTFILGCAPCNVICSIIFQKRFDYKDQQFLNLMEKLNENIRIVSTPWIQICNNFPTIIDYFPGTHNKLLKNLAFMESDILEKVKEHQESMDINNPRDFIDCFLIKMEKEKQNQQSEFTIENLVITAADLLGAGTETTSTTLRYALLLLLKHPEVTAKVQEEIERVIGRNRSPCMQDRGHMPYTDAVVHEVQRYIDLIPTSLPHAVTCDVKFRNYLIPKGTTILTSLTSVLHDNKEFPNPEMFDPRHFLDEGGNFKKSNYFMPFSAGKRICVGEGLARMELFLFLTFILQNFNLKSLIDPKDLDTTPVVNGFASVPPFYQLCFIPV
T5 sequence (P11712 whole entry): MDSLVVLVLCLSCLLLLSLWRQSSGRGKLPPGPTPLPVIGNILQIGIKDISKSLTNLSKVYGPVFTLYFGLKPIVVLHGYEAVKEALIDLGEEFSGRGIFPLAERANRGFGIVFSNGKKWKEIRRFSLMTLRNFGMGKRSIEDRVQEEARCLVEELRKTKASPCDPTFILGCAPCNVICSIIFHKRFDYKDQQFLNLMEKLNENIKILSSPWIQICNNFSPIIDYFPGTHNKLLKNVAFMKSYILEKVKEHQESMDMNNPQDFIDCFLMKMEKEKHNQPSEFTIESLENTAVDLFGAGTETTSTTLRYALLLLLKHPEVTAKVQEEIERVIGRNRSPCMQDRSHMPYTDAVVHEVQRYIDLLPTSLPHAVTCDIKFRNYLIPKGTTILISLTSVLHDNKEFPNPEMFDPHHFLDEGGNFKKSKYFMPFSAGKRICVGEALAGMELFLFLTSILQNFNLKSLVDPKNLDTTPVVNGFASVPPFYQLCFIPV
T4 sequence (P08684 whole entry): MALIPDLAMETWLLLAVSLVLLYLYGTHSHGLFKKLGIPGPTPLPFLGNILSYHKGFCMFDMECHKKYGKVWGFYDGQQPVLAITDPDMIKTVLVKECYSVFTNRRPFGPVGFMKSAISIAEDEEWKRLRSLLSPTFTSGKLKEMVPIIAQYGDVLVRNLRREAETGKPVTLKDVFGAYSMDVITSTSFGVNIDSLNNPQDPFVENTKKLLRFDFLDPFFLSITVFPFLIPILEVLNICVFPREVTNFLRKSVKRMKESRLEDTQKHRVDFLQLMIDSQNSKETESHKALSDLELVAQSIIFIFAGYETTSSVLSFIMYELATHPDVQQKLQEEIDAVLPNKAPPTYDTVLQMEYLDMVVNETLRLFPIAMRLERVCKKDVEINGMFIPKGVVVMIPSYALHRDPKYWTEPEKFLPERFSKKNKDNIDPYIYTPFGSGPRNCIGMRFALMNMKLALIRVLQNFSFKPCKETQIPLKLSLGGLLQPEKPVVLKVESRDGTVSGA

## COc1cc(-c2cc3ccncc3c3nc(OCCN(C)C)c4cnccc4c23)cc(OC)c1OC [P8-D6, 6-(N,N-dimethyl-2-aminoethoxy)-11-(3,4,5-trimethoxyphenyl)-pyrido[3,4-c][1,9]-phenanthroline]
CYP1A2; HLM
  IC50: 912 µM
CYP1A2; recombinant CYP isoenzyme
  IC50: 503 µM
Lipophilicity
  logP: 2.9
Lipophilicity; pH 7.4, read-out: log D7.4
  logD: 3.7
CYP2C19; HLM
  IC50: 149 µM
CYP2C19; recombinant CYP isoenzyme
  IC50: 793 µM
CYP2C8; HLM
  IC50: 246 µM
CYP2C8; recombinant CYP isoenzyme
  IC50: 282 µM

## CNCCOc1nc2c3cnccc3cc(-c3cc(OC)c(OC)c(OC)c3)c2c2ccncc12 [P8-D6 mono]
CYP3A4
  formation of metabolite from P8-D6: 0.34%

## COc1cc(-c2cc3ccncc3c3[nH]c(=O)c4cnccc4c23)cc(OC)c1OC [P8-DO]
CYP2C9
  formation of metabolite from P8-D6: 0.10%

## COc1cc(-c2cc3ccncc3c3nc(OCC[N+](C)(C)[O-])c4cnccc4c23)cc(OC)c1OC [P8-D6 N-oxide]
[1]; rat liver microsomes
  formation of metabolite from P8-D6: 1.91%
[1]; rat lung PNS
  formation of metabolite from P8-D6: 1.37%
[2]
  formation of metabolite from P8-D6: 3.08%
